Source: paper PMC6120924, “YesU from Bacillus subtilis preferentially binds fucosylated glycans” (Scientific Reports, 2018)

molecular target: T1, YesU (Bacillus subtilis, UniProt O31524); experiment: SPR, steady state, single cycle, Biacore T100; type: binding; conditions: His-YesU on Ni-NTA chip; PBS-MgCl2 pH 7.4; 25 °C
T1 construct: captured by His tag on NTA chip
T1 sequence (O31524 1-220): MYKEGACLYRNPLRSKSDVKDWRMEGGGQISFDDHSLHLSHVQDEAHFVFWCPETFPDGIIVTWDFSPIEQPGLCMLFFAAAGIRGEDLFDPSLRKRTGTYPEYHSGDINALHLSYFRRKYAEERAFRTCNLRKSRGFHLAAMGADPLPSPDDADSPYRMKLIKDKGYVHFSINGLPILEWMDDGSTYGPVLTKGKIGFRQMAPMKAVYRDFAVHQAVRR
Description: SPR, steady state, single cycle, Biacore T100 on YesU

First: C[C@@H]1O[C@@H](O[C@H]2C(O)O[C@H](CO)[C@H](O)[C@@H]2O[C@H]2O[C@H](CO)[C@H](O)[C@H](O)[C@H]2O)[C@@H](O)[C@H](O)[C@@H]1O (stereo partly drawn) [7M, Galα1-3(Fucα1-2)Gal]
Second: CC(=O)N[C@H]1[C@@H](O[C@H]2[C@@H](O)[C@@H](CO)OC(O)[C@@H]2O[C@@H]2O[C@@H](C)[C@@H](O)[C@@H](O)[C@@H]2O)O[C@H](CO)[C@H](O)[C@@H]1O (stereo partly drawn) [7K, GalNAcα1-3(Fucα1-2)Gal]
The Kd of the first is 40-fold lower: 190 ± 3 nM for the first, 7630 ± 300 nM for the second. The first binds more tightly here.

Going from CC(=O)N[C@H]1C(O)O[C@H](CO)[C@@H](O[C@@H]2O[C@@H](C)[C@@H](O)[C@@H](O)[C@@H]2O)[C@@H]1O[C@@H]1O[C@H](CO)[C@H](O)[C@H](O)[C@H]1O (stereo partly drawn) [7J, Galβ1-3(Fucα1-4)GlcNAc] to CC(=O)N[C@H]1C(O)O[C@H](CO)[C@@H](O[C@@H]2O[C@H](CO)[C@H](O)[C@H](O)[C@H]2O)[C@@H]1O[C@@H]1O[C@@H](C)[C@@H](O)[C@@H](O)[C@@H]1O (stereo partly drawn) [7I, Galβ1-4(Fucα1-3)GlcNAc], the Kd falls from 420 ± 4 nM to 150 ± 6 nM (2.8-fold). The second binds more tightly here.

First: CC(=O)N[C@H]1[C@H](O[C@H]2[C@@H](O)[C@@H](CO)O[C@@H](O[C@H]3[C@H](O)[C@@H](O)C(O)O[C@@H]3CO)[C@@H]2O)O[C@H](CO)[C@@H](O[C@@H]2O[C@H](CO)[C@H](O)[C@H](O)[C@H]2O)[C@@H]1O (stereo partly drawn) [1H, Galβ1-4GlcNAcβ1-3Galβ1-4Glc]
Second: CC(=O)N[C@H]1[C@H](O[C@H]2[C@@H](O)[C@@H](CO)O[C@@H](O[C@H]3[C@H](O)[C@@H](O)C(O)O[C@@H]3CO)[C@@H]2O)O[C@H](CO)[C@@H](O[C@@H]2O[C@H](CO)[C@H](O)[C@H](O)[C@H]2O)[C@@H]1O[C@@H]1O[C@@H](C)[C@@H](O)[C@@H](O)[C@@H]1O (stereo partly drawn) [7C, Galβ1-4(Fucα1-3)GlcNAcβ1-3Galβ1-4Glc]
The Kd of the first is 3.1-fold higher: 440 ± 20 nM for the first, 140 ± 1 nM for the second. The second binds more tightly here.

Compared with CC(=O)N[C@H]1[C@H](O[C@H]2[C@@H](O)[C@@H](CO)O[C@@H](O[C@H]3[C@H](O[C@@H]4O[C@@H](C)[C@@H](O)[C@@H](O)[C@@H]4O)[C@@H](O)C(O)O[C@@H]3CO)[C@@H]2O)O[C@H](CO)[C@@H](O[C@@H]2O[C@@H](C)[C@@H](O)[C@@H](O)[C@@H]2O)[C@@H]1O[C@@H]1O[C@H](CO)[C@H](O)[C@H](O)[C@H]1O (stereo partly drawn) [7E, Galβ1-3(Fucα1-4)GlcNAcβ1-3Galβ1-4(Fucα1-3)Glc], CC(=O)N[C@H]1[C@H](O[C@H]2[C@@H](O)[C@@H](CO)O[C@@H](O[C@H]3[C@H](O)[C@@H](O)C(O)O[C@@H]3CO)[C@@H]2O)O[C@H](CO)[C@@H](O[C@@H]2O[C@H](CO)[C@H](O)[C@H](O)[C@H]2O[C@@H]2O[C@@H](C)[C@@H](O)[C@@H](O)[C@@H]2O)[C@@H]1O[C@@H]1O[C@@H](C)[C@@H](O)[C@@H](O)[C@@H]1O (stereo partly drawn) [8H, Fucα1-2Galβ1-4(Fucα1-3)GlcNAcβ1-3Galβ1-4Glc] is 3.4-fold higher in Kd: 340 ± 10 nM for the first, 1140 ± 30 nM for the second.

CC(=O)N[C@H]1C(O)O[C@H](CO)[C@@H](O[C@@H]2O[C@H](CO)[C@H](O)[C@H](O)[C@H]2O[C@@H]2O[C@@H](C)[C@@H](O)[C@@H](O)[C@@H]2O)[C@@H]1O[C@@H]1O[C@@H](C)[C@@H](O)[C@@H](O)[C@@H]1O (stereo partly drawn) [7N, Fucα1-2Galβ1-4(Fucα1-3)GlcNAc] and CC(=O)N[C@H]1C(O)O[C@H](CO)[C@@H](O[C@@H]2O[C@H](CO)[C@H](O)[C@H](O)[C@H]2O[C@@H]2O[C@@H](C)[C@@H](O)[C@@H](O)[C@@H]2O)[C@@H]1O (stereo partly drawn) [7O, Fucα1-2Galβ1-4GlcNAc] are the same in Kd: 340 ± 2 nM for the first, 340 ± 4 nM for the second.

Compared with CC(=O)N[C@H]1C(O)O[C@H](CO)[C@@H](O[C@@H]2O[C@@H](C)[C@@H](O)[C@@H](O)[C@@H]2O)[C@@H]1O[C@@H]1O[C@H](CO)[C@H](O)[C@H](OS(=O)(=O)O)[C@H]1O (stereo partly drawn) [8A, SO3-3Galβ1-3(Fucα1-4)GlcNAc], CC(=O)N[C@H]1[C@H](O[C@H]2[C@@H](O)[C@@H](CO)O[C@@H](O[C@H]3[C@H](O)[C@@H](O)C(O)O[C@@H]3CO)[C@@H]2O)O[C@H](CO)[C@@H](O)[C@@H]1O[C@@H]1O[C@H](CO)[C@H](O)[C@H](O)[C@H]1O[C@@H]1O[C@@H](C)[C@@H](O)[C@@H](O)[C@@H]1O (stereo partly drawn) [7A, Fucα1-2Galβ1-3GlcNAcβ1-3Galβ1-4Glc] is 1.7-fold lower in Kd: 2070 ± 20 nM for the first, 1230 ± 20 nM for the second.

Compared with C[C@@H]1O[C@@H](O[C@H]2C(O)O[C@H](CO)[C@H](O)[C@@H]2O)[C@@H](O)[C@H](O)[C@@H]1O (stereo partly drawn) [7F, Fucα1-2Gal], CC(=O)N[C@H]1[C@H](O[C@H]2[C@H](O)[C@@H](NC(C)=O)[C@H](O[C@H]3[C@H](O)[C@@H](NC(C)=O)C(O)O[C@@H]3CO)O[C@@H]2CO)O[C@H](CO)[C@@H](O[C@@H]2O[C@H](CO)[C@@H](O[C@@H]3O[C@H](CO)[C@@H](O[C@@H]4O[C@H](CO)[C@@H](O)[C@H](O)[C@H]4NC(C)=O)[C@H](O)[C@H]3NC(C)=O)[C@H](O)[C@H]2NC(C)=O)[C@@H]1O (stereo partly drawn) [4D, GlcNAcβ1-4GlcNAcβ1-4GlcNAcβ1-4GlcNAcβ1-4GlcNAcβ 1-4GlcNAc] is 3.1-fold higher in Kd: 360 ± 10 nM for the first, 1130 ± 20 nM for the second.

CC(=O)NC1C(OC2C(O)C(COC3OC(CO)C(OC4OC(CO)C(O)C(OC5OC(CO)C(OC6OC(CO)C(O)C(O)C6O)C(O)C5NC(C)=O)C4O)C(OC4OC(C)C(O)C(O)C4O)C3NC(C)=O)OC(OC3C(CO)OC(O)C(O)C3O)C2O)OC(CO)C(OC2OC(CO)C(O)C(O)C2O)C1O (stereo not drawn) [8N, Galβ1-3GlcNAcβ1-3Galβ1-4(Fucα1-3)GlcNAcβ1-6(Galβ1-3 GlcNAcβ1-3)Galβ1-4Glc] showed a Kd of 240 ± 20 nM.
